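Method: 48-hour compound exposure of cells in 96-well plates, five concentrations, linear interpolation of endpoints. Abbreviation: GI50, concentration required for 50% inhibition of growth.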 Activity calls are given as the source filed them. No stated cut-off is given here; in the data, active = GI50 up to about 1.1 µM and inactive = higher.
What was measured:
Experiment in all cases: DTP human tumour cell line panel, 48 h
KM-20L2 = test system: KM-20L2
DLD-1 = test system: DLD-1
DMS-273 = test system: DMS-273
HOP-18 = test system: HOP-18
SNB-78 = test system: SNB-78
XF498 = test system: XF498
DU-145 = test system: DU-145
NCI/ADR-RES = test system: NCI/ADR-RES
RXF 631 = test system: RXF 631

C/C=C/CC(C)[C@@H](O)[C@H](NC)C(=O)O (stereo partly drawn)
GI50 (KM-20L2): > 100 µM (inactive) | GI50 (DLD-1): > 100 µM (inactive) | GI50 (DMS-273): > 100 µM (inactive) | GI50 (HOP-18): > 100 µM (inactive)

Cc1ccc(NC(=O)CC2Sc3ccccc3NC2=O)cc1C (stereo not drawn)
GI50 (KM-20L2): > 100 µM (inactive) | GI50 (DLD-1): > 100 µM (inactive) | GI50 (DMS-273): 85.7 µM (inactive) | GI50 (SNB-78): > 100 µM (inactive) | GI50 (HOP-18): > 100 µM (inactive) | GI50 (XF498): > 100 µM (inactive)

COc1ccc2c(c1)/C(=C(\C(Cl)=C(\Cl)N1CCCCC1)[N+](=O)[O-])N2
GI50 (DU-145): > 100 µM (inactive) | GI50 (NCI/ADR-RES): > 100 µM (inactive)

CN(C(=O)C1=CCC2(CC1)OCCO2)c1ccccc1I
GI50 (DU-145): > 100 µM (inactive) | GI50 (NCI/ADR-RES): > 100 µM (inactive)

CC(=O)Nc1ccc2c3c(cc(O)c2c1)N(C(=O)CCCCCC(=O)Nc1ccc2c4c(cc(O)c2c1)N(C(=O)OC(C)(C)C)CC4CCl)CC3CCl (stereo not drawn)
GI50 (DU-145): 0.463 µM (active) | GI50 (NCI/ADR-RES): > 100 µM (inactive)

OC(c1ccccc1)C1CC2C=CC1C2 (stereo not drawn)
GI50 (RXF 631): > 100 µM (inactive) | GI50 (DLD-1): > 100 µM (inactive) | GI50 (DMS-273): > 100 µM (inactive) | GI50 (SNB-78): > 100 µM (inactive) | GI50 (XF498): > 100 µM (inactive)

COC(=O)CCC(=O)Nc1ccc(Cl)cc1C
GI50 (RXF 631): > 29.9 µM (inactive) | GI50 (KM-20L2): > 48.4 µM (inactive) | GI50 (DLD-1): > 100 µM (inactive) | GI50 (DMS-273): > 100 µM (inactive) | GI50 (SNB-78): 98.4 µM (inactive) | GI50 (HOP-18): > 100 µM (inactive) | GI50 (XF498): 13.5 µM (inactive)

Cc1ccc(S(=O)(=O)NCCCSCCO)cc1
GI50 (DU-145): > 100 µM (inactive) | GI50 (NCI/ADR-RES): > 100 µM (inactive)

CCN(CC)CCC(=O)c1ccccc1
GI50 (KM-20L2): 21.5 µM (inactive) | GI50 (DMS-273): 18.5 µM (inactive) | GI50 (HOP-18): 15.3 µM (inactive)

CN(C)C(=S)/N=c1\ssc(=S)n1Cc1ccco1
GI50 (RXF 631): 4.69 µM (inactive) | GI50 (KM-20L2): 1.93 µM (inactive) | GI50 (DLD-1): 2.86 µM (inactive) | GI50 (DMS-273): 0.587 µM (active) | GI50 (SNB-78): 3.18 µM (inactive) | GI50 (HOP-18): 82.2 µM (inactive) | GI50 (XF498): 4.39 µM (inactive)

CC1CC/C(=C\c2ccc(F)cc2)C(=O)/C1=C/c1ccc(F)cc1 (stereo not drawn)
GI50 (DU-145): 4.07 µM (inactive) | GI50 (NCI/ADR-RES): 2 µM (inactive)

Cc1c(C)c(S(=O)(=O)N(CCCN)OCCCN)c(C)c2c1OC(C)(C)CC2
GI50 (DU-145): 16 µM (inactive) | GI50 (NCI/ADR-RES): 25.7 µM (inactive)

COc1ccccc1-c1cc(O)c2ccc(C)nc2n1
GI50 (DU-145): > 100 µM (inactive) | GI50 (NCI/ADR-RES): > 100 µM (inactive)

COc1cc(O)c2c(=O)c(O)c(-c3ccc(O)c(O)c3)oc2c1 [RHAMNETIN]
GI50 (DU-145): 4.13 µM (inactive) | GI50 (NCI/ADR-RES): 8.55 µM (inactive)

From ChEMBL document CHEMBL1201862, “PubChem BioAssay data set” (2004)
